Results reported in patent US20230295200A1 (REGENTS OF THE UNIVERSITY OF MICHIGAN, priority 2022, published 2023).

target: T1, STAT6 protein (Homo sapiens, UniProt P42226); assay: Fluorescence polarization (FP) binding assay, STAT6; settings: FP competition, 5 nM fluorescein-labeled tracer, 200 nM protein, PBS pH7.4; read-out: Binding STAT6
T1 sequence (P42226 1-847): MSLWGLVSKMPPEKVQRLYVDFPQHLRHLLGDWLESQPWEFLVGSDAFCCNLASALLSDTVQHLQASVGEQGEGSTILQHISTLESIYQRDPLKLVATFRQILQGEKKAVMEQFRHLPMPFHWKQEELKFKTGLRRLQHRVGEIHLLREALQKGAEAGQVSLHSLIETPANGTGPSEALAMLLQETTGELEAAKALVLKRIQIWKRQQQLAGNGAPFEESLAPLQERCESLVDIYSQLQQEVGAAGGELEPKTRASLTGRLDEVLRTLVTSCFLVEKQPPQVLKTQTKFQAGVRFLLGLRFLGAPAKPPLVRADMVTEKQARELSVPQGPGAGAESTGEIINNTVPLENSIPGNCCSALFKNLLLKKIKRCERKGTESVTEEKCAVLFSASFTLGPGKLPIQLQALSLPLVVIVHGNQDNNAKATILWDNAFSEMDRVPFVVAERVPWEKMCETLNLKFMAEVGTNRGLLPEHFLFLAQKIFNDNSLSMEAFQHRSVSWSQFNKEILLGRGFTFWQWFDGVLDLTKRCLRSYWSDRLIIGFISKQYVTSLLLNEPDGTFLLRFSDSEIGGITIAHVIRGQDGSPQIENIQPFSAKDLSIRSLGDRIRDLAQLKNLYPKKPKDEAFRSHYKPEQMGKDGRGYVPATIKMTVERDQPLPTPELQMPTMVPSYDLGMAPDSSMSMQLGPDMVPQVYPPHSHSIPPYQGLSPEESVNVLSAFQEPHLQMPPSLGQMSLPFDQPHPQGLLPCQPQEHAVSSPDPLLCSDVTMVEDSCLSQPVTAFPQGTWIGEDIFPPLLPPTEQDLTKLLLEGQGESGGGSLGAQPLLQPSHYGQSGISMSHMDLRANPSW
Procedure: Evaluation of the activity of the inhibitors may be accomplished by fluorescence polarization (FP) experiments. A representative general protocol is the following:
Fluorescence polarization (FP) experiments are performed in black round-bottom plates using the CLARIOstar microplate reader. To each well, fluorescein-labeled tracer and STAT5 or STAT6 protein are added in assay buffer. […] The inhibition constants are determined as the concentration of the STAT5 or STAT6 at which 50% of the ligand is bound.
Fluorescence polarization (FP) experiments were performed in 96-well, black round-bottom plates (Microfluor 2, Fisher Scientific) using the CLARIOstar microplate reader (BMG Labtech). To each well, 5 nM of fluoresceinlabeled tracer and 200 nM of STAT5 and/or STAT6 protein were added to a final volume of 100 μl in the assay buffer (PBS pH7.4+0.01% BGG+0.01% Tween-20, 2 mM DTT). The plate was mixed on a shaker for 15 m and incubated at room temperature for 1 h to reach equilibrium. […] All experimental data were analyzed using Prism 8.0 software (GraphPad Software), and the inhibition constants were determined by nonlinear curve fitting as the concentration of the STAT5 and/or STAT6 at which 50% of the ligand is bound.

Structure (SMILES)	Ki [nM]
CC(C)(C)[C@H](NC(=O)c1cc2cc(C(F)(F)P(=O)(O)O)ccc2s1)C(=O)N1Cc2ccccc2C[C@H]1C(=O)N1CCS(=O)(=O)[C@H](c2ccccc2)C1 [Compound 224, ((2-(((S)-1-((S)-3-((R)-1,1-dioxido-2-phenylthiomorpholine-4-carbonyl)-3,4-dihydroisoquinolin-2(1H)-yl)-3,3-dimethyl-1-oxobutan-2-yl)carbamoyl)benzo[b]thiophen-5-yl)difluoromethyl)phosphonic acid]	< 100
CC1CN(C(=O)[C@@H]2Cc3ccccc3CN2C(=O)[C@@H](NC(=O)c2cc3cc(C(F)(F)P(=O)(O)O)ccc3s2)C(C)(C)C)CC(c2ccccc2)O1 (stereo partly drawn) [Compound 226, ((2-(((2S)-3,3-dimethyl-1-((3S)-3-(2-methyl-6-phenylmorpholine-4-carbonyl)-3,4-dihydroisoquinolin-2(1H)-yl)-1-oxobutan-2-yl)carbamoyl)benzo[b]thiophen-5-yl)difluoromethyl)phosphonic acid]	100 to 1000
CC(C)(C)[C@H](NC(=O)c1cc2cc(C(F)(F)P(=O)(O)O)ccc2s1)C(=O)N1Cc2ccccc2C[C@H]1C(=O)N1CCOC(c2cccc3ccccc23)C1 (stereo partly drawn) [Compound 227, ((2-(((2S)-3,3-dimethyl-1-((3S)-3-(2-(naphthalen-1-yl)morpholine-4-carbonyl)-3,4-dihydroisoquinolin-2(1H)-yl)-1-oxobutan-2-yl)carbamoyl)benzo[b]thiophen-5-yl)difluoromethyl)phosphonic acid]	100 to 1000
Cc1ccccc1C1CN(C(=O)[C@@H]2Cc3ccccc3CN2C(=O)[C@@H](NC(=O)c2cc3cc(C(F)(F)P(=O)(O)O)ccc3s2)C(C)(C)C)CCO1 (stereo partly drawn) [Compound 228, ((2-(((2S)-3,3-dimethyl-1-oxo-1-((3S)-3-(2-(o-tolyl)morpholine-4-carbonyl)-3,4-dihydroisoquinolin-2(1H)-yl)butan-2-yl)carbamoyl)benzo[b]thiophen-5-yl)difluoromethyl)phosphonic acid]	100 to 1000
Cc1ccc(C2CN(C(=O)[C@@H]3Cc4ccccc4CN3C(=O)[C@@H](NC(=O)c3cc4cc(C(F)(F)P(=O)(O)O)ccc4s3)C(C)(C)C)CCO2)c(C)c1 (stereo partly drawn) [Compound 229, ((2-(((2S)-1-((3S)-3-(2-(2,4-dimethylphenyl)morpholine-4-carbonyl)-3,4-dihydroisoquinolin-2(1H)-yl)-3,3-dimethyl-1-oxobutan-2-yl)carbamoyl)benzo[b]thiophen-5-yl)difluoromethyl)phosphonic acid]	1000 to 10000

The remaining lines, values ahead:

Ki [nM]	Structure (SMILES)
100 to 1000	CC(C)(C)[C@H](NC(=O)c1cc2cc(C(F)(F)P(=O)(O)O)ccc2s1)C(=O)N1Cc2ccccc2C[C@H]1C(=O)N1CCOC(C2CCCCC2)C1 (stereo partly drawn) [Compound 222, ((2-(((2S)-1-((3S)-3-(2-cyclohexylmorpholine-4-carbonyl)-3,4-dihydroisoquinolin-2(1H)-yl)-3,3-dimethyl-1-oxobutan-2-yl)carbamoyl)benzo[b]thiophen-5-yl)difluoromethyl)phosphonic acid]
< 100	CC(C)(C)[C@H](NC(=O)c1cc2cc(C(F)(F)P(=O)(O)O)ccc2s1)C(=O)N1Cc2ccccc2C[C@H]1C(=O)N1CCSC(c2ccccc2)C1 (stereo partly drawn) [Compound 223, ((2-(((2S)-3,3-dimethyl-1-oxo-1-((3S)-3-(2-phenylthiomorpholine-4-carbonyl)-3,4-dihydroisoquinolin-2(1H)-yl)butan-2-yl)carbamoyl)benzo[b]thiophen-5-yl)difluoromethyl)phosphonic acid]
100 to 1000	CC(C)(C)[C@H](NC(=O)c1cc2cc(C(F)(F)P(=O)(O)O)ccc2s1)C(=O)N1Cc2ccccc2C[C@H]1C(=O)N1CCS(=O)(=O)[C@@H](c2ccccc2)C1 [Compound 225, ((2-(((S)-1-((S)-3-((S)-1,1-dioxido-2-phenylthiomorpholine-4-carbonyl)-3,4-dihydroisoquinolin-2(1H)-yl)-3,3-dimethyl-1-oxobutan-2-yl)carbamoyl)benzo[b]thiophen-5-yl)difluoromethyl)phosphonic acid]
